Results reported in patent US9718792B2, “Isoxazoline hydroxamic acid derivatives as LpxC inhibitors” (priority 2014, dated 2017).
Converted amounts (≈) assume the structure as drawn. Where two headings read alike, the source gives them in different places.

Assays:
[1] = molecular target: P. aeruginosa LpxC (Pseudomonas aeruginosa (strain ATCC 15692 / DSM 22644 / CIP 104116 / JCM 14847 / LMG 12228 / 1C / PRS 101 / PAO1), UniProt P47205); assay: P. aeruginosa LpxC Inhibition Assay; assay type: biochemical; conditions: 1 nM P. aeruginosa LpxC, 2 μM substrate, LC-MS/MS; read-out: PA LpxC IC50
From the text: The P. aeruginosa LpxC protein is produced according to the general method of Hyland et al (Journal of Bacteriology 1997 179, 2029-2037: Cloning, expression and purification of UDP-3-O-acyl-GIcNAc deacetylase from Pseudomonas aeruginosa: a metalloamidase of the lipid A biosynthesis pathway). The LC-MS/MS method for quantitation of LpxC product was developed using an Agilent 1200 Capillary HPLC system coupled to an Applied Biosystems MDS Sciex 4000QTRAP mass spectrometer. Both instruments are controlled using the Applied Biosystems MDS Sciex Analyst software. LpxC reaction product (UDP-3-O—(R-3-hydroxyacyl)-glucosamine) was produced by hydrolysis of LpxC substrate catalyzed by P.a. LpxC and purified using reversed phase chromatography on a Phenomenex Luna C18(2) 4.6×50 mm column. An LpxC product calibration curve was generated to evaluate the sensitivity and dynamic range of the LC-MS/MS method. Briefly, compounds are pre-incubated with 1 nM P. aeruginosa LpxC for 30 min. at room temperature. Reactions are initiated by the addition of 2 μM UDP-3-O—(R-3-hydroxydecanoyl)-GIcNAc. Reactions are conducted in a 384-well plate with a total volume of 50 μL in each well containing 50 mM Sodium phosphate pH 7.5, 0.005% Trition X-100 for 20 min at room temperature. After quenching with 1.8% HOAc (5 μL of a 20% HOAc added to each well), reaction mixtures are analyzed using the LC-MS/MS method and peak areas are transformed into product concentration using a LpxC product calibration curve. Total activity (0% inhibition control) is obtained from reactions with no inhibitors and 100% inhibition control is the background using quenched samples before reaction starts. For IC50 determinations, peak areas are converted to percent inhibition in Microsoft Excel. Percent inhibition values are plotted vs. log compound concentration using XLfit. Data is fit to the four-parameter logistic equation using the non-linear regression algorithm in XLfit to return the IC50 and hill slope values.

[2] = system: P. aeruginosa PAO1; assay: Susceptibility Testing (MIC, broth microdilution); assay type: cell-based, Pseudomonas aeruginosa; conditions: Pseudomonas aeruginosa, PAO1, 20 h, read-out: PAO1 MIC
Protocol: Bacterial isolates were cultivated from −70° C. frozen stocks by two consecutive overnight passages at 35° C. in ambient air on 5% blood agar (Remel, Lenexa, Kans.). Quality control and P. aeruginosa ATCC 27853) is from the American Type Culture Collection (ATCC; Rockville, Md.) and PAO1 was received from Dr. K. Poole.
Minimal Inhibitory Concentrations (MICs) were determined by the broth microdilution method in accordance with Clinical and Laboratories Institute (CLSI) guidelines. In brief, fresh bacterial overnight cultures were resuspended in sterile saline, adjusted to a 0.5 McFarland turbidity standard and then diluted […] in cation adjusted Mueller-Hinton Broth II (MHB; Remel BBL) to yield a final inoculum of approximately 5×10^5 colony-forming units (CFU)/mL. Two-fold serial dilutions of compounds were prepared in 100% dimethyl sulfoxide (DMSO) at 100-fold the highest final assay concentration; the resulting dilution series of compounds were diluted 1:10 with sterile water. Ten μl of the drug dilution series in 10% DMSO was transferred to microtiter wells and 90 μl of bacterial suspension was inoculated into the wells. All inoculated microdilution trays were incubated in ambient air at […] for 20 hours. Following incubation, assay plates were read in a microtiter plate reader at 600 nm and visually inspected to confirm the MIC endpoint well with the OD value. The lowest concentration of the compound that prevented visible growth was recorded as the MIC. Performance of the assay was monitored by testing ciprofloxacin against laboratory quality control strains in accordance with guidelines of the CLSI.

[3] = P. aeruginosa PAO1, broth microdilution, 20 hours

SMILES	IC50 [1]	MIC [2, 3]	MIC [2]
C[C@@](C[C@H]1CC(c2ccc(C#CCCF)cc2)=NO1)(C(=O)NO)S(C)(=O)=O [Compound 22, (R)-3-((R)-3-(4-(4-fluorobut-1-yn-1-yl)phenyl)-4,5-dihydroisoxazol-5-yl)-N-hydroxy-2-methyl-2-(methylsulfonyl)propanamide]	< 0.5 nM	0.5 µg/mL (≈ 1.26 µM)	–
C/C=C/c1ccc(C2=NO[C@@H](C[C@](C)(C(=O)NO)S(C)(=O)=O)C2)cc1 [Compound 24, (R)—N-hydroxy-2-methyl-2-(methylsulfonyl)-3-((R)-3-(4-((E)-prop-1-en-1-yl)phenyl)-4,5-dihydroisoxazol-5-yl)propanamide]	0.8 nM	0.5 µg/mL (≈ 1.36 µM)	–
CC(O)C#CC#Cc1ccc(C2=NO[C@@H](C[C@](C)(C(=O)NO)S(C)(=O)=O)C2)cc1 (stereo partly drawn) [Compound 30, (2R)—N-hydroxy-3-((5R)-3-(4-(5-hydroxyhexa-1,3-diyn-1-yl)phenyl)-4,5-dihydroisoxazol-5-yl)-2-methyl-2-(methylsulfonyl)propanamide]	0.5 nM	0.06 µg/mL (≈ 0.143 µM)	–
CCc1ccc(C2=NO[C@@H](C[C@](C)(C(=O)NO)S(C)(=O)=O)C2)cc1 [Compound 31, (R)-3-((R)-3-(4-ethylphenyl)-4,5-dihydroisoxazol-5-yl)-N-hydroxy-2-methyl-2-(methylsulfonyl)propanamide]	1 nM	0.22 µg/mL (≈ 0.621 µM)	–
C[C@@](C[C@H]1CC(c2ccc(CCCF)cc2)=NO1)(C(=O)NO)S(C)(=O)=O [Compound 33, (R)-3-((R)-3-(4-(3-fluoropropyl)phenyl)-4,5-dihydroisoxazol-5-yl)-N-hydroxy-2-methyl-2-(methylsulfonyl) propanamide]	2 nM	–	0.5 µg/mL (≈ 1.29 µM)
CC(C)(O)[C@H]1C[C@H](C#Cc2ccc(C3=NO[C@@H](C[C@](C)(C(=O)NO)S(C)(=O)=O)C3)cc2)C1 [Compound 39A, (R)—N-hydroxy-3-((R)-3-(4-(((1 r,3R)-3-(2-hydroxypropan-2-yl)cyclobutyl)ethynyl)phenyl)-4,5-dihydroisoxazol-5-yl)-2-methyl-2-(methylsulfonyl)propanamide]	0.5 nM	0.5 µg/mL (≈ 1.08 µM)	–
C[C@@](C[C@H]1CC(c2ccc(-c3ccc(CO)cc3)cc2)=NO1)(C(=O)NO)S(C)(=O)=O [Compound 41, (R)—N-hydroxy-3-((R)-3-(4′-(hydroxymethyl)-[1,1′-biphenyl]-4-yl)-4,5-dihydroisoxazol-5-yl)-2-methyl-2-(methylsulfonyl)]	0.5 nM	0.125 µg/mL (≈ 0.289 µM)	–
C[C@@](C[C@H]1CC(c2ccc(-n3nccn3)cc2)=NO1)(C(=O)NO)S(C)(=O)=O [Compound 43, (R)-3-((R)-3-(4-(2H-1,2,3-triazol-2-yl)phenyl)-4,5-dihydroisoxazol-5-yl)-N-hydroxy-2-methyl-2-(methylsulfonyl)propanamide]	5 nM	1.4 µg/mL (≈ 3.56 µM)	–
COC1CC(C#Cc2ccc(C3=NO[C@@H](C[C@](C)(C(=O)NO)S(C)(=O)=O)C3)cc2)C1 (stereo partly drawn) [Compound 44, (R)—N-hydroxy-3-((R)-3-(4-((3-methoxycyclobutyl)ethynyl)phenyl)-4,5-dihydroisoxazol-5-yl)-2-methyl-2-(methylsulfonyl)propanamide]	0.8 nM	0.5 µg/mL (≈ 1.15 µM)	–
C[C@@](C[C@H]1CC(c2ccc(-c3ccc(CN4CCOCC4)cc3)cc2)=NO1)(C(=O)NO)S(C)(=O)=O [Compound 47, (R)—N-hydroxy-2-methyl-2-(methylsulfonyl)-3-((R)-3-(4′-(morpholinomethyl)-[1,1′-biphenyl]-4-yl)-4,5-dihydroisoxazol-5-yl)]	0.6 nM	0.35 µg/mL (≈ 0.698 µM)	–
COCCOc1ccc(-c2ccc(C3=NO[C@@H](C[C@](C)(C(=O)NO)S(C)(=O)=O)C3)cc2)cc1 [Compound 48, (R)—N-hydroxy-3-((R)-3-(4′-(2-methoxyethoxy)-[1,1′-biphenyl]-4-yl)-4,5-dihydroisoxazol-5-yl)-2-methyl-2-(methylsulfonyl)propanamide]	1 nM	0.25 µg/mL (≈ 0.525 µM)	–

Second part, led by results:

IC50 [1]	MIC [2, 3]	SMILES	MIC [2]
< 0.5 nM	0.5 µg/mL (≈ 1.36 µM)	CCCc1ccc(C2=NO[C@@H](C[C@](C)(C(=O)NO)S(C)(=O)=O)C2)cc1 [Compound 23, (R)—N-hydroxy-2-methyl-2-(methylsulfonyl)-3-((R)-3-(4-propylphenyl)-4,5-dihydroisoxazol-5-yl)propanamide]	–
0.6 nM	0.125 µg/mL (≈ 0.325 µM)	C/C=C(\F)c1ccc(C2=NO[C@@H](C[C@](C)(C(=O)NO)S(C)(=O)=O)C2)cc1 [Compound 29, (R)-3-((R)-3-(4-((Z)-1-fluoroprop-1-en-1-yl)phenyl)-4,5-dihydroisoxazol-5-yl)-N-hydroxy-2-methyl-2-(methylsulfonyl)propanamide]	–
0.9 nM	0.4 µg/mL (≈ 1.03 µM)	CCSc1ccc(C2=NO[C@@H](C[C@](C)(C(=O)NO)S(C)(=O)=O)C2)cc1 [Compound 32, (R)-3-((R)-3-(4-(ethylthio)phenyl)-4,5-dihydroisoxazol-5-yl)-N-hydroxy-2-methyl-2-(methylsulfonyl)propanamide]	–
2 nM	0.5 µg/mL (≈ 1.25 µM)	C[C@@](C[C@H]1CC(c2ccc(CCCCF)cc2)=NO1)(C(=O)NO)S(C)(=O)=O [Compound 34, (R)-3-((R)-3-(4-(4-fluorobutyl)phenyl)-4,5-dihydroisoxazol-5-yl)-N-hydroxy-2-methyl-2-(methylsulfonyl) propanamide]	–
2 nM	1 µg/mL (≈ 2.16 µM)	CC(C)(O)[C@H]1C[C@@H](C#Cc2ccc(C3=NO[C@@H](C[C@](C)(C(=O)NO)S(C)(=O)=O)C3)cc2)C1 [Compound 39B, (R)—N-hydroxy-3-((R)-3-(4-(((1 s,3S)-3-(2-hydroxypropan-2-yl)cyclobutyl)ethynyl)phenyl)-4,5-dihydroisoxazol-5-yl)-2-methyl-2-(methylsulfonyl)propanamide]	–
0.5 nM	0.16 µg/mL (≈ 0.358 µM)	C[C@@](C[C@H]1CC(c2ccc(-c3ccc(CCO)cc3)cc2)=NO1)(C(=O)NO)S(C)(=O)=O [Compound 40, (R)—N-hydroxy-3-((R)-3-(4′-(2-hydroxyethyl)-[1,1′-biphenyl]-4-yl)-4,5-dihydroisoxazol-5-yl)-2-methyl-2-(methylsulfonyl)]	–
0.5 nM	0.25 µg/mL (≈ 0.593 µM)	C[C@@](C[C@H]1CC(c2ccc(-c3ccncc3F)cc2)=NO1)(C(=O)NO)S(C)(=O)=O [Compound 42, (R)-3-((R)-3-(4-(3-fluoropyridin-4-yl)phenyl)-4,5-dihydroisoxazol-5-yl)-N-hydroxy-2-methyl-2-(methylsulfonyl)propanamide]	–
0.6 nM	0.16 µg/mL (≈ 0.347 µM)	C[C@@H](O)Cc1ccc(-c2ccc(C3=NO[C@@H](C[C@](C)(C(=O)NO)S(C)(=O)=O)C3)cc2)cc1 [Compound 45, (R)—N-hydroxy-3-((R)-3-(4′-((R)-2-hydroxypropyl)-[1,1′-biphenyl]-4-yl)-4,5-dihydroisoxazol-5-yl)-2-methyl-2-(methylsulfonyl)]	–
1 nM	0.125 µg/mL (≈ 0.271 µM)	C[C@H](O)Cc1ccc(-c2ccc(C3=NO[C@@H](C[C@](C)(C(=O)NO)S(C)(=O)=O)C3)cc2)cc1 [Compound 46, (R)—N-hydroxy-3-((R)-3-(4′-((S)-2-hydroxypropyl)-[1,1′-biphenyl]-4-yl)-4,5-dihydroisoxazol-5-yl)-2-methyl-2-(methylsulfonyl)]	–
1 nM	0.25 µg/mL (≈ 0.56 µM)	C[C@@H](O)c1ccc(-c2ccc(C3=NO[C@@H](C[C@](C)(C(=O)NO)S(C)(=O)=O)C3)cc2)cc1 [Compound 49, (R)—N-hydroxy-3-((R)-3-(4′-((R)-1-hydroxyethyl)-[1,1′-biphenyl]-4-yl)-4,5-dihydroisoxazol-5-yl)-2-methyl-2-(methylsulfonyl)]	–
